Measured values: patent US20160368943A1, “SUBSTITUTED PURINE COMPOUNDS” (EPIZYME, INC., priority 2013, published 2016)
Where two headings read alike, the source gives them in different places.

What was measured:
[1] = Hepatocyte stability, dog; assay type: in vitro ADME, Beagle dog
Method: Human, Beagle dog, Sprague-Dawley rat, and CD-1 mouse cryopreserved hepatocytes were obtained from XenoTech and stored at −150° C. until use. The hepatocytes were thawed and prepared according to the vendor's instructions, pooled into Krebs Henseleit buffer (KHB, pH 7.4), and kept on ice prior to initiating an experiment. […] The reaction mixture was incubated in a shaking water bath at 37° C. Aliquots of the incubation solutions were sampled at 0, 15, 30, 60, and 120 minutes. The reaction was immediately terminated by the addition of three volumes of ice-cold acetonitrile containing 0.1% formic acid and internal standards. After centrifugation at 1640×g for 10 minutes, the supernatants were transferred into HPLC vials, and the test compound was analyzed by LC-MS/MS. Positive controls, testosterone (20 μM) and 7-hydroxycoumarin (100 μM), were performed in parallel to confirm the enzyme activities of the hepatocytes used.
Experimental half-lives were transformed to the corresponding intrinsic clearance values and subsequently scaled to predicted in vivo clearance values, using the well-stirred model as previously described (Houston, Biochemical Pharmacology 47(9): 1469-1479, 1994; Obach, Drug Metabolism and Disposition 27(11): 1350-1359, 1999), with appropriate species-specific scaling factors (Barter et al., Current Drug Metabolism 8(1): 33-45, 2007).

[2] = system: MDR1-MDCK (P-glycoprotein) cells; assay: MDCK cell permeability, MDR1-transfected cells; assay type: in vitro ADME, dog; conditions: from relative efflux ratio, transfected vs native cells
Method: (§1) Samples were taken from the donor and receiver chambers at 120 minutes. Each determination was performed in duplicate. Co-dosed lucifer yellow flux was also measured for each monolayer to ensure cell monolayers remained intact during the incubation. All samples were assayed by LC-MS/MS.

P-glycoprotein (MDR1) = assay: MDCK cell permeability, MDR1-transfected cells; assay type: in vitro ADME, dog; conditions: dog, 10 uM
Method: as §1

[3] = Metabolite profiling in liver microsomes with NADPH and UDPGA, mouse; assay type: in vitro ADME; conditions: Compound A 10 μM, 20 min
Method: (§2) Compound A was incubated with liver microsomes of various species (mouse, rat, dog or human). […] For all liver microsomal incubations, samples were taken at 0 and 20 minutes. All samples were quenched by using acetonitrile/methanol solution and analyzed using an LC-MS/MS Q-Trap system (AB Sciex, Framingham, Mass.).
(§3) The corresponding product ion tandem mass spectra of Compound A and its metabolites were obtained by using enhanced product ion (EPI) scans during positive ion electrospray. The possible chemical structures of the metabolites were deduced based on their MS1 and MS2 spectra.

[4] = Liver microsome stability, mouse; assay type: in vitro ADME
Method: The final incubation volume was 50 μL. Control incubations were included for each species where 0.1 M phosphate buffer pH 7.4 was added instead of NADPH (minus NADPH). Two control compounds were included for each species. […] The control (minus NADPH) was incubated for 45 minutes only. The reactions were stopped by transferring 25 μL of incubate to 50 μL methanol at the appropriate time points. The incubation plates were centrifuged at 2,500 rpm for 20 minutes at 4° C. to aid protein precipitation. Experimental half-lives were transformed to the corresponding intrinsic clearance values and subsequently scaled to predicted in vivo clearance values, using the well-stirred model as previously described (Houston, Biochemical Pharmacology 47(9): 1469-1479, 1994; Obach, Drug Metabolism and Disposition 27(11): 1350-1359, 1999), with appropriate species-specific scaling factors (Barter et al., Current Drug Metabolism 8(1): 33-45, 2007).

Plasma stability, rat = assay type: in vitro ADME; conditions: Sprague Dawley, pooled plasma, 37° C., read-out: Half-life in ex vivo blood plasma
Text: Samples were quenched in methanol and analyzed by LC-MS/MS analysis.

[5] = Metabolite profiling in liver microsomes with NADPH and UDPGA, rat; assay type: in vitro ADME; conditions: Compound A 10 μM, 20 min
Method: as §2, §3

[6] = Pharmacokinetic study in rat; assay type: in vivo, Sprague-Dawley rat
Method: In the IV bolus study, 1 mg/kg doses prepared in 0.4% HPBCD in saline were administered via foot dorsal vein injection. At each timepoint, 150 μL of blood was collected via tail vein into EDTA-K2 tubes. The blood samples were maintained in wet ice initially and centrifuged to obtain plasma (2000 g, 4° C., 5 minutes) within 15 minutes post sampling. In the PO study, doses prepared in 10% Ethanol:5% Solutol HS15:85% (5% of dextrose in water) were administered by oral gavage. Samples were collected as described above. In the IV infusion study, doses were prepared in 10% PEG400 in 0.9% saline and administered into the femoral vein, at a dose of 4.7 mg/kg/day for 7 days. 500 μL of blood was collected by jugular venipuncture at timepoints over 7 days and placed on crushed wet ice until centrifugation, which was carried out as soon as practical. The samples were centrifuged for 10 minutes at 4° C. at 2700 rpm. The resultant plasma was separated and frozen immediately over dry ice for LC-MS/MS analysis. […] Typically, samples were injected onto an LC-MS/MS system using a Waters BEH Phenyl column. The aqueous mobile phase was water with 0.1% NH4OH (A), and the organic mobile phase was acetonitrile with 0.1% NH4OH (B). The gradient was as follows: 37% B for the first 0.2 min, increased to 44% B from 0.2 to 0.6 min, maintained at 44% B for 0.5 min, and decreased to 37% B within 0.05 min. The injection volume was 2 uL, and the total run time was 1.5 min with a flow rate of 0.6 mL/min. […] The ionization was conducted in the positive ion mode using the MRM transition [M+H]+m/z 563.5 parent ion to m/z 326.3 daughter ion, incorporating a turbo-ionspray interface. Eight to ten calibration standards were prepared in blank plasma of the relevant species providing a typical standard curve concentration range of 5-500 ng/mL. Pharmacokinetic parameters were calculated by noncompartmental methods using WinNonlin (version 5.3; Pharsight, St. Louis, Mo.). Parameters are presented as mean±S.D.

[7] = male, Sprague-Dawley, plasma, SD rat, IV bolus, 1 mg/kg
[8] = male, Sprague-Dawley, plasma, SD rat, IV infusion, 4.7 mg/kg/day for 7 days
[9] = male, Sprague-Dawley, plasma, SD rat, PO, 10 mg/kg

In the case of CC(C)N(C[C@H]1O[C@@H](n2cnc3c(N)ncnc32)[C@H](O)[C@@H]1O)[C@H]1C[C@@H](CCc2nc3cc(C(C)(C)C)ccc3[nH]2)C1 [Compound A, (2R,3R,4S,5R)-2-(6-amino-9H-purin-9-yl)-5-((((1r,3S)-3-(2-(5-(tert-butyl)-1H-benzo[d]imidazol-2-yl)ethyl)cyclobutyl)(isopropyl)amino)methyl)tetrahydrofuran-3,4-diol], the “Scaled Hepatic CL from hepatocytes” value [1] is reported as 21 mL/min/kg, the hepatocyte CLint at 3 μM ([1]; beagle, cryopreserved hepatocytes in suspension, pH 7.4, 3 μM) is reported as 14.9 µL/min/1e6 cells and the “P-gp substrate (in words)” value [2] is reported as “not a substrate for P-gp”. The Papp A→B at 120 min, 10 uM (P-glycoprotein (MDR1); MDCK-MDR1, MDCK - MDR1 transfected, Apical-to-basolateral) was < 0.1 ×10⁻⁶ cm/s, the Papp B→A at 120 min, 10 uM (P-glycoprotein (MDR1); MDCK - MDR1 transfected, Basolateral-to-apical) was 0.22 ×10⁻⁶ cm/s and the “Abundance based on UV spectra” value [3] was 25.4%. The microsomal CLint at 3 μM ([4]; liver microsomes, pH 7.4, NADPH, 3 μM) was 150 µL/min/mg, the “Scaled Hepatic CL from liver microsomes” value ([4]; well-stirred model) was 78 mL/min/kg and the half-life at 1 μM (Plasma stability, rat) was > 2 h. For the same molecule, the “Abundance based on UV spectra” value [5] was 59.4%, the CL ([6]; SD rat, IV bolus, 1 mg/kg) was 67.8 ± 5.3 mL/min/kg and the t1/2 ([6]; SD rat, IV bolus, 1 mg/kg) was 3.73 ± 1.03 h. The “time to steady state” value ([6]; SD rat, IV infusion, 4.7 mg/kg/day) was ≤ 1 h, the F ([6]; SD rat, PO, 10 mg/kg) was <1% and the AUC(0-inf) [6, 7] was 0.44 ± 0.03 µM·h. The AUC(0-t) [6, 7] was 0.43 ± 0.03 µM·h, the Cmax [6, 7] was 2040 ± 230 nM and the MRT [6, 7] was 0.41 ± 0.1 h. For the same molecule, the Tmax [6, 7] was 0.05 h, the AUC(0-inf) [6, 8] was 12.5 µM·h and the AUC(0-t) [6, 8] was 12.5 µM·h. The Cmax [6, 8] was 130 nM, the Tmax [6, 8] was 4 h and the concentration at 7 days ([6]; male, Sprague-Dawley, plasma, SD rat, IV infusion, 4.7 mg/kg/day for 7 days, read-out: average steady state concentration) was 78 nM. The Cmax [6, 9] was 0.7 nM, the Tmax [6, 9] was 0.25 h and the half-life ([6]; male, Sprague-Dawley, rat, plasma, iv, 1 mg/kg, SD rat, IV bolus) was 3.7 h. It also gave a clearance ([6]; male, Sprague-Dawley, rat, plasma, iv, 1 mg/kg, SD rat, IV bolus, 1 mg/kg, read-out: CL) of 68 mL/min/kg, a Vd ([6]; male, Sprague-Dawley, rat, plasma, iv, 1 mg/kg, SD rat, IV bolus, 1 mg/kg, read-out: VDss) of 1.66 L/kg and a Vd ([6]; male, Sprague-Dawley, rat, plasma, iv, 1 mg/kg, rat, read-out: Unbound VDss) of 6.1 L/kg. For the same molecule, the clearance ([6]; male, Sprague-Dawley, rat, plasma, iv, 4.7 mg/kg/day, SD rat, IV infusion, 4.7 mg/kg/day, Css 78 nM, read-out: CL estimate from IV infusion (dose rate divided by Css)) was 74 mL/min/kg and the “oral bioavailability (in words)” value ([6]; rat, PO) was “low and negligible”.
